How the values were obtained:
[1] = test system: IL-6, MCP-1, MIP1β, CC16, fibrinogen and CRP levels in plasma; test: Inhaled LPS challenge: plasma protein biomarkers; assay type: in vivo, human; settings: study 2; for Plasma CC16, mean / Plasma CRP, mean / Plasma Fibrinogen, mean / Plasma IL-6, mean / Plasma MCP-1, mean / Plasma MIP-1β, mean: PH-797804 30 mg oral or PF-03715455 20 mg inhaled, 6 hrs post LPS
Method: Blood samples were obtained in studies 2 and 3 to obtain plasma measurements of IL-6, MCP-1, MIP1β, CC16, fibrinogen and CRP levels; pre-dose and 6 h post-LPS samples were used for statistical analysis. This coincided with the timings of sputum measurements of inflammation biomarkers.
Systemic biomarkers were analysed using a similar mixed effects model; these models also adjusted for pre-dose baseline values, which were obtained 24 h prior to LPS challenge in study 2 and 30 min prior to LPS challenge in study 3.

[2] = test system: IL-8 production from epithelial cells; set-up: method as in Pfizer, data on file; settings: ref Pfizer, data on file; cited from earlier work
[3] = test system: phospho-p38 expression in sputum macrophages; test: Immunocytochemistry of sputum macrophages: phospho-p38; assay type: in vivo, human; settings: study 2; for mean percentage of macrophages expressing phospho-p38: PH-797804 30 mg oral or PF-03715455 20 mg inhaled, Post-LPS
Method: (§1) Frozen cytospins created from sputum cells were analysed for phosphorylated-Heat Shock Protein 27 (phospho-HSP27) and phospho-p38 expression in sputum macrophages. The methods are fully described in the online supplement. Phospho-p38 and phospho-HSP27 immunoreactivity is presented as percentage of the macrophage population. All analyses were carried out by blinded observers.
Frozen cytospins created from sputum cells were thawed and the cells were fixed in 4% paraformaldehyde in PBS for 10 minutes at room temperature, followed by blocking in normal serum. Cytospins were then incubated with the following primary antibodies overnight at 4 °C; anti-human phosphorylated-p38 (phospho-p38) MAPK (Thr180/Tyr182) antibody (Cat No. 9211S, New England Biolabs, Herts, UK) or phosphorylated-Heat Shock Protein 27 (phospho-HSP27 [Cat No. S82, New England Biolabs]) diluted 1:50 in 1.5% normal serum with 0.5% Triton X-100 (Sigma-Aldrich). Endogenous peroxidase was quenched by incubating cytospins in 3% H2O2 in methanol (0.3% for phospho-p38). Phospho-p38 and phospho-HSP27 were detected using biotinylated goat anti-rabbit IgG secondary antibody (Vector Labs, Peterborough, UK) in conjunction with an avidin–biotin peroxidase complex (Vector Labs) and 3,3’-diaminobenzidine (DAB) substrate. Cell nuclei were counterstained with Gill’s haematoxylin (Sigma-Aldrich). Omission of primary antibody in staining protocol was used as a negative control.
Digital micrographs were obtained through the use of a Nikon Eclipse 80i microscope (Nikon UK Ltd, Surrey, UK) equipped with a QImaging digital camera (Media cybernetics, Marlow, UK) and ImageProPlus 5.1 software (Media Cybernetics). Sputum macrophages (determined by morphology) were analysed for phospho-p38 and phospho-HSP27 expression following single label immunohistochemistry utilising the ImagePro Plus image analysis software; at least 200 macrophages per cytospin were counted. Phospho-p38 and phospho-HSP27 immunoreactivity was presented as percentage of the macrophage population. All analysis was carried out by blinded observers.

[4] = healthy subjects; ref previous phase 1 studies (unpublished); cited from earlier work
[5] = test system: phospho-HSP27 expression in sputum macrophages; test: Immunocytochemistry of sputum macrophages: phospho-HSP27; assay type: in vivo, human; settings: study 2; PH-797804 30 mg oral or PF-03715455 20 mg inhaled; Post-LPS
Method: as §1
Frozen cytospins created from sputum cells were thawed and the cells were fixed in 4% paraformaldehyde in PBS for 10 minutes at room temperature, followed by blocking in normal serum. […] Phospho-p38 and phospho-HSP27 were detected using biotinylated goat anti-rabbit IgG secondary antibody (Vector Labs, Peterborough, UK) in conjunction with an avidin–biotin peroxidase complex (Vector Labs) and 3,3’-diaminobenzidine (DAB) substrate. […]
Digital micrographs were obtained through the use of a Nikon Eclipse 80i microscope (Nikon UK Ltd, Surrey, UK) equipped with a QImaging digital camera (Media cybernetics, Marlow, UK) and ImageProPlus 5.1 software (Media Cybernetics). Sputum macrophages (determined by morphology) were analysed for phospho-p38 and phospho-HSP27 expression following single label immunohistochemistry utilising the ImagePro Plus image analysis software; at least 200 macrophages per cytospin were counted. […]

[6] = Drug concentration in sputum supernatant; assay type: in vivo, human; settings: study 2, ten subjects, PF-03715455 inhaled dose, PH-797804 oral dose
[7] = Plasma pharmacokinetics (sparse sampling); assay type: in vivo, human; settings: for Plasma concentration: PF-03715455 20 mg inhaled; for concentration at 23 h / concentration at 30.5 h: human, plasma, po, 30 mg, PH-797804 30 mg oral; for concentration at 23 h: 23 h post dose; for concentration at 30.5 h: 30.5 h post dose
[8] = test system: sputum neutrophils and macrophages after inhaled LPS; test: Inhaled LPS challenge in healthy subjects: induced sputum cell counts; assay type: in vivo, human; settings: for attenuation of the modelled LPS response (sputum neutrophil percentage): PH-797804: studies 1 and 2, PF-03715455: study 2; for Mean (SD) sputum neutrophil percentage: 6 h post-LPS; for Macrophage Differential in sputum / Total Cell Count in sputum / Total Macrophage Count in sputum / Total Neutrophil Count in sputum: ANCOVA model mean; for Macrophage Differential in sputum, difference between the active treatment mean and the placebo mean: footnote: difference, not ratio
Method: Three randomised, double-blind, placebo-controlled crossover studies were performed; the effects of a single dose of active treatment was investigated in all three studies. […] Studies 2 and 3 were conducted at two UK centres: Quintiles Drug Research Unit, London, and Medicines Evaluation Unit, Manchester. […] The studies were performed during the following time periods: study 1, Sep 2006–Mar 2008; study 2, Jan 2011–Dec 2011; and study 3, Jul 2011–Jan 2012. The design of all three studies was similar. A baseline sputum sample was obtained within 14 days of the first study period when subjects were administered a single dose of randomised treatment. […] Induced sputum was obtained 6 h later to coincide with the maximal inflammatory response caused by inhaled LPS. […] This criterion was used to ensure that sputum cell counts after LPS challenge had returned to close to the original baseline values; this was done to reduce data variability between treatment periods. […] For each challenge, a 1-mg vial of lyophilised LPS (Escherichia coli serotype O26:B6, ref. L-2654, Sigma-Aldrich, Dorset, UK) was diluted with 4 mL of 0.9 % w/v sodium chloride. The reconstitution produced a 0.25 mg/mL solution, of which 2 mL was placed into the pre-calibrated dosimeter pot and administered via five inhalations from a breath-activated dosimeter (Mefar dosimeter MB3, Brescia, Italy). Each inhalation was performed over 3 s with a 6-s breath hold. […] Sputum was induced using normal saline after inhalation of salbutamol, and processing was performed using dithiothreitol (DTT) as previously described. The supernatants were stored at −80 °C for later analysis, while cells were used to produce cytoslides (Cytospin 4, Shandon, Runcorn, UK) for differential cell counting and immunocytochemistry. […] Cell viability was analysed by trypan blue exclusion. Cytoslides with % squamous cell counts <20 % were deemed to be of acceptable quality for differential cell counting. Unfixed cytoslides were wrapped in aluminium foil and stored frozen at −80 °C for immunocytochemistry. Sputum neutrophil percentage was the primary endpoint for all three studies. The neutrophil percentage was modelled using a mixed effects analysis of covariance (ANCOVA) model appropriate for a two-period, two-treatment or three-period, three-treatment crossover design. The fixed effects in the model were treatment and period. Subjects were modelled as a random effect. Additionally, the period-specific baseline was modelled as a covariate. This model was used for all sputum inflammatory markers, including the immunohistocytochemistry, where cell counts were log transformed before analyzing the data and percent differentials were not transformed. […] Ninety percent confidence intervals of the difference (non-transformed data) or the ratio (log-transformed data) were constructed based on the ANCOVA model.

[9] = test system: IL-6, MPO, MCP-1 and MIP-1β in sputum supernatant; test: Inhaled LPS challenge: sputum supernatant protein biomarkers; assay type: in vivo, human; settings: for Sputum IL-6, mean / Sputum MCP-1, mean / Sputum MIP-1β, mean / Sputum MPO, mean: post LPS
Method: A baseline sputum sample was obtained within 14 days of the first study period when subjects were administered a single dose of randomised treatment. […] Induced sputum was obtained 6 h later to coincide with the maximal inflammatory response caused by inhaled LPS. A washout period of at least 21 days followed, with subjects returning after 14 days of the washout period for induced sputum sampling; this was performed to ensure that the total cell count, total neutrophil count and total macrophage count were within the range of −80 to +100 % of the screening values. […] If these criteria were not met, then up to two repeat visits to obtain sputum were allowed, with at least 4 days between sputum inductions. The next randomised treatment day was scheduled at least 4 days after sputum induction and was identical to the first treatment day.
Sputum was induced using normal saline after inhalation of salbutamol, and processing was performed using dithiothreitol (DTT) as previously described [20]. The supernatants were stored at −80 °C for later analysis, while cells were used to produce cytoslides (Cytospin 4, Shandon, Runcorn, UK) for differential cell counting and immunocytochemistry. Cytoslides for differential cell count were fixed in methanol (Sigma) and then stained with Rapi-Diff® (GCC Diagnostics, Sandyhurst, UK) or Wright-modified Giemsa (Accustatin WG-18, Sigma-Aldrich); a minimum of 400 non-squamous cells were counted and differential cell counts obtained as percentage of total non-squamous cells. Cell viability was analysed by trypan blue exclusion. Cytoslides with % squamous cell counts <20 % were deemed to be of acceptable quality for differential cell counting. Unfixed cytoslides were wrapped in aluminium foil and stored frozen at −80 °C for immunocytochemistry.
In studies 1 and 2, sputum supernatants were analysed for interleukin 6 (IL-6), myeloperoxidase (MPO), monocyte chemotactic protein-1 (MCP-1) and macrophage inflammatory protein-1β (MIP-1 β), using electrochemiluminescent immunoassays (ECLIA) or enzyme-linked immunosorbent assays (ELISA); the manufacturers are listed in the online supplement. In study 3, sputum supernatants were analysed for IL-6, MCP-1 and MIP-1β by the same method.

[10] = study 2, PH-797804 30 mg oral (p = 0.0001) or PF-03715455 20 mg inhaled (p = 0.031), single dose
[11] = study 2, PH-797804 30 mg oral or PF-03715455 20 mg inhaled, single dose
[12] = study 2, PH-797804 30 mg oral or PF-03715455 20 mg inhaled, post LPS
[13] = study 2, post LPS, listed as PF-03715445
[14] = study 2, PH-797804 30 mg oral or PF-03715455 20 mg inhaled
[15] = study 1, PH-797804 30 mg oral, post LPS

Compound | Plasma CC16, mean [1] [ng/mL] | Plasma CRP, mean [1] [ng/mL] | Plasma Fibrinogen, mean [1] [µg/mL] | Plasma IL-6, mean [1] [pg/mL] | Plasma MCP-1, mean [1] [pg/mL] | Plasma MIP-1β, mean [1] [pg/mL] | IL-8 production from epithelial cells [2] | mean percentage of macrophages expressing phospho-p38 [3] [%] | time of maximum systemic concentration (tmax) [4] | mean percentage of macrophages expressing phospho-HSP27 [5] [%] | geometric mean sputum concentration [6] [nM] | sputum concentration, range [6] [nM] | attenuation of the modelled LPS response (sputum neutrophil percentage) [8] | reduction in mean sputum neutrophil percentage post-LPS compared to placebo [8, 10] [%] | Mean (SD) sputum neutrophil percentage [8, 11] | Macrophage Differential in sputum [8, 12] [%] | Total Cell Count in sputum [8, 12] [g⁻¹] | Total Macrophage Count in sputum [8, 12] [g⁻¹] | Total Neutrophil Count in sputum [8, 12] [g⁻¹] | sputum supernatant IL-6, MPO, MCP-1 and MIP-1β levels compared to placebo [9, 14] | other results
CC(C)(C)c1cc(NC(=O)NCc2ccccc2Sc2ccc3nnc(-c4ccccc4SCCO)n3c2)n(-c2ccc(O)c(Cl)c2)n1 [PF-03715455] | 10.19 | 475.90 | 2340.40 | 14.43 | 340.30 | 71.55 | significantly inhibit | 25.03 | ~30 min | 26.89 | 20 | 4 to 73 | approximately 25% | 8.0 | 66.4 (14.0) % | 30.78 | 3.83e+06 | 1.09e+06 | 2.43e+06 | no effects | plasma IL-6, MCP-1, MIP1β and CC16 compared to placebo ([1]; PF-03715455 20 mg inhaled, 6 h post-LPS challenge): statistically significant reductions; attenuation of the baseline measurements (macrophages expressing phospho-P38 and phospho-HSP27) ([3]; PF-03715455 20 mg inhaled): 45–50%; Plasma concentration ([7]; study 2, 1.5 h post dose): 472.6 (116.4) pg/mL; Plasma concentration ([7]; study 2, 6.5 h post dose): 110.6 (29.7) pg/mL; Total Cell Count in sputum, Ratio of Means active/placebo ([8]; study 2, post LPS): 1.02; Total Macrophage Count in sputum, Ratio of Means active/placebo ([8]; study 2, post LPS): 1.62; Total Neutrophil Count in sputum, Ratio of Means active/placebo ([8]; study 2, post LPS): no effects; Macrophage Differential in sputum, difference between the active treatment mean and the placebo mean ([8]; study 2, post LPS): significantly attenuated; Macrophage Differential in sputum, difference between the active treatment mean and the placebo mean [8, 13]: 7.97%; Total Neutrophil Count in sputum, Ratio of Means active/placebo [8, 13]: 0.85; Sputum IL-6, mean [9, 14]: 91.67 pg/mL; Sputum MCP-1, mean [9, 14]: 115.38 pg/mL; Sputum MIP-1β, mean [9, 14]: 396.35 pg/mL; Sputum MPO, mean [9, 14]: 937.04 ng/mL
CNC(=O)c1ccc(C)c(-n2c(C)cc(OCc3ccc(F)cc3F)c(Br)c2=O)c1 [PH-797804] | 9.34 | 462.10 | 2172.70 | 5.47 | 261.50 | 33.82 | significantly inhibit | 38.00 | approximately 24 h | 42.27 | 4 | 2 to 7 | approximately 50% | 15.3 | 60.4 (17.9) % | 36.39 | 2.02e+06 | 620000 | 1.17e+06 | significantly reduced | plasma IL-6, MIP1β, MCP-1, CC16 and CRP levels compared to placebo ([1]; PH-797804 30 mg oral, 6 h post-LPS challenge): statistically significant reductions; concentration at 23 h ([7]; study 1): 38.9 ng/mL; concentration at 30.5 h ([7]; study 1): 37.8 ng/mL; concentration at 23 h ([7]; study 2): 56.8 ng/mL; concentration at 30.5 h ([7]; study 2): 49.2 ng/mL; Mean (SD) sputum neutrophil percentage ([8]; study 1, PH-797804 30 mg oral single dose): 56.4 (24.0) %; reduction in mean sputum neutrophil percentage post-LPS compared to placebo ([8]; study 1, PH-797804 30 mg oral single dose, p = 0.0096): 15.1%; Total Macrophage Count in sputum [8, 15]: 470000 g⁻¹; Total Neutrophil Count in sputum [8, 15]: 660000 g⁻¹; Sputum IL-6, mean ([9]; study 1, PH-797804 30 mg oral): 29.66 pg/mL; Sputum MCP-1, mean ([9]; study 1, PH-797804 30 mg oral): 155.07 pg/mL; Sputum MIP-1β, mean ([9]; study 1, PH-797804 30 mg oral): 330.54 pg/mL; Sputum MPO, mean ([9]; study 1, PH-797804 30 mg oral): 669.06 ng/mL; sputum supernatant cytokine levels compared to placebo ([9]; study 1, PH-797804 30 mg oral, trends towards significance for MCP-1 and MPO): did not significantly inhibit; Sputum IL-6, mean [9, 14]: 69.02 pg/mL; Sputum MCP-1, mean [9, 14]: 133.41 pg/mL; Sputum MIP-1β, mean [9, 14]: 609.10 pg/mL; Sputum MPO, mean [9, 14]: 485.28 ng/mL

Reference: publication PMC4564450, “Oral and inhaled p38 MAPK inhibitors: effects on inhaled LPS challenge in healthy subjects” (European Journal of Clinical Pharmacology, 2015)
